In US12263177B2, “Biologically active ganoderma lucidum compounds and synthesis of anticancer derivatives; ergosterol peroxide probes for cellular localization” (priority 2019, dated 2025):

Columns and labels:
MCF10A = assay type: cell-based
Procedure: As a control, normal human skin fibroblasts (BJ) cells and non-cancerous mammary epithelial cells (MCF10A) were used.
Cell viability assays (MTT or PI staining assays) in SUM-149, SUM-190, MDA-MB-231, and MCF10A cells were performed as we previously described [14].

SUM-149 = experiment: Cytotoxicity of EP probes via CTG assay; assay type: cell-based, human; details: Homo sapiens, SUM149, 72 hr
Procedure: (§1) Both normal cell lines HMEC and BJ cells were also evaluated to determine therapeutic index.
(§2) The concentrations used were experimentally determined to ensure logarithmic growth during the duration of the experiment and prevent adverse effects on cell growth by DMSO exposure. The plates were incubated at 37° C. in 5% CO2 for 24 h before treatment. Stock solutions of test compounds (10 mM in DMSO) in nine 3-fold serial dilutions were dispensed via pintool (Biomek). The final concentration of DMSO was 0.3% (v/v) in each well. The plates were incubated for 72 h at 37° C. in 5% CO2 and then quenched with CellTiter-Glo® reagent (50 μL/well in 96-well plate, 30 μL/well in 384-well plate) at RT. The positive controls included staurosporine (10 μM), gambogic acid (10 μM), and a toxic quinoline generated in-house. Plates were then incubated at RT for 20 min and centrifuged at 1000 rpm for 1 min. The cytotoxicity assay was performed by using the CellTiterGlo Luminescent Cell Viability Assay kit (G7570, Promega, Madison, WI) according to the manufacturer's instructions. Luminescence was recorded in an Envision plate reader (Perkin Elmer).
(§3) For the CTG assay, 3 or 4 replicate assays were conducted for each experimental condition, and a minimum of 3 independent experiments were conducted for cellular assays. The mean luminescence of each experimental treatment group was normalized as a percentage of the mean intensity of untreated controls. EC50 values (μM) were calculated by Pipeline Pilot Software (Accelrys, Enterprise Platform, CA, USA). EC50 values (μM) from the viability assay were calculated from dose response curve-fitting via non-linear regression by using GraphPad Prism (Version 7.0 San Diego, CA).

HMEC = experiment: Cytotoxicity of EP probes via CTG assay, normal cells; assay type: cell-based; details: Homo sapiens, HMEC, 72 hr
Procedure: as §1, §2, §3

SUM-149 cells [1] = experiment: Colony formation assay; assay type: cell-based, human; details: 72 h treatment, 10 d culture
Procedure: Cells commonly fail to bypass the G1 phase of the cycle due to mutations or DNA damage, which can result in apoptosis. […] In addition, caspase 3/7 activity assays were performed as an alternate method of apoptosis detection.
SUM-149 cells (1.5×10^6 cells/well) were plated on a 6-well plate. Two days later, cell media was changed to 5% FBS, and cells were incubated at 37° C. in a 5% CO2 atmosphere for 1 h before vehicle (0.1% DMSO) or EP (5-40 μM) was added. After 72 h of treatment, cells were trypsinized and reseeded at 200 cells/mL per well in 24-well plates. After 10 d of culture, colonies were visualized by crystal violet staining, and the colony numbers were counted under a microscope.

SUM-190 IBC cells = experiment: Cell viability assay (CellTiter-Glo or PI staining); assay type: cell-based; details: SUM190; FIG. 4E
Procedure: Different concentrations of GLE-extracted bioactive chemical components were tested for 72-h treatment periods.
Either 1×10^3-4.8×10^3 or 4×10^2-1.2×10^3 cells were seeded to each well of 96- or 384-well white polystyrene flat-bottomed plates (3610 or 8804BC, Corning) in 100 μL or 30 μL media per well, respectively. The concentrations used were experimentally determined to ensure logarithmic growth during the duration of the experiment and prevent adverse effects on cell growth by DMSO exposure. The plates were incubated at 37° C. in 5% CO2 for 24 h before treatment. Stock solutions of test compounds (10 mM in DMSO) in nine 3-fold serial dilutions were dispensed via pintool (Biomek). The final concentration of DMSO was 0.3% (v/v) in each well. […] Luminescence was recorded in an Envision plate reader (Perkin Elmer).
as §3

[2] = Incubation with NAC monitored by NMR and LC-MS; assay type: physicochemical; details: DMSO, 24 h, 37° C.
Procedure: Live-cell CellROX® assays for oxidative stress detection were conducted to evaluate whether GA-01, ergosterol, 5-6-dihydroergosterol and EP trigger intrinsic apoptosis pathways by inducing ROS. […] Menadione or t-Butyl hydrogen peroxide (TBHP) were positive controls (FIGS. 7 and S5) and co-treated with N-acetyl cysteine (NAC) to confirm that the signal was due to ROS formation induced by the compound. […] Furthermore, the possibility of the endoperoxide motif to react with NAC, was assessed EP was incubated with NAC in DMSO for 24 h at 37° C. […] Thus, the ability of EP to induce ROS could potentially be via a different mechanism from that of TBHP in MCF-7 cells.

MDA-MB-231 GFP tumors = experiment: In vivo tumor progression, MDA-MB-231-GFP mammary fat pad xenograft; details: 100 mg/kg BW i.p. three times per week, female SCID mice
Procedure: Female severe combined immunodeficient (SCID) mice (21 d of age) were purchased from Charles River Laboratories International Inc. (Wilmington, MA) and housed under specific pathogen free conditions. The mice received autoclaved AIN 76-A phytoestrogen-free diet (Tek Global, Harlan Teklad, Madison, WI) and water ad libitum. This protocol was approved by the Universidad Central del Caribe IACUC. Cell inoculations were performed as previously described by the inventors (PMID: 20517637, PMID: 23468988, PMID: 26958085, PMID: 30542507, PMID: 31658643). […] After tumor establishment the animals were randomly divided into control and experimental groups. Treatment started on week 5 post-inoculations when tumors were ˜100 mm^3. […]
The mice were imaged following tumor establishment, and once per week thereafter. Tumor progression was monitored by fluorescence image analysis taken on an UVP iBox Explorer (Analytik Jena, Upland, CA) and quantified as in PMID: 20517637. Relative tumor growth was calculated as the fluorescence intensity of each tumor on day of imaging. Quantification for tumor progression was calculated using the fluorescence intensity of each treated tumor relative to the fluorescence intensity of the same tumor on d 01 of treatment administration (week 5) using ImageJ software (National Institutes of Health, Bethesda, MD). […]

SUM-149 cells [3] = experiment: Migration assay (Boyden chamber); assay type: cell-based, human; details: 10 μM, 72 h
Procedure: Previously, the anti-migratory activities of whole mushroom GLE in SUM-149 cells was reported. To investigate EP's effects on cell migration, Boyden chamber assays; while to investigate invasion, Transwell chambers were used. […] Furthermore, an additional decrease (43%) was seen when cells were treated with a non-lethal dose of 15 μM of EP (P<0.01) (FIG. 8B).
Cell migration and invasion were measured by using Corning® FluoroBlok™ Cell Culture Inserts and performing BD BioCoat Matrigel invasion assays (BD Biosciences, San José, Calif.) as described in [12, 14].

SUM-149 cells [4] = experiment: Reactive oxygen species (ROS) measurement, CellROX; assay type: cell-based, human
[5] = test system: AKT isoforms, BCL-XL, Cyclin D1, c-Myc, PARP in SUM-149 cells; experiment: Immunoblots of signaling proteins; assay type: cell-based, human
Source text: Studies that focus on drivers of cancer cell survival and invasion signaling show the important role of the AKT isoforms in breast cancer. AKT1 and AKT3 are associated with breast cancer invasion, and PTEN-deficient tumors depend on AKT2 for maintenance and survival. […] Regulation of AKT isoform expression by EP is extremely similar to what the inventors reported with whole mushroom GLE in the same breast cancer cell lines.
Because EP induced apoptosis, its effects on the expression on anti-apoptosis proteins BCL-2 and BCL-XL, which block the release of cytochrome C from the mitochondria were investigated. […] The apoptosis inducing effects of EP in SUM-149 cells were investigated by monitoring PARP cleavage.
Breast cancer cells treated with vehicle or EP were lysed, and equal total protein was resolved via SDS-PAGE and immunoblotted with indicated antibodies (Cell Signaling Technologies, Abcam, Sigma) as described previously.

CC(C)[C@@H](C)/C=C/[C@@H](C)[C@H]1CC[C@@H]2[C@]1(C)CC[C@H]1[C@]23C=C[C@]2(C[C@@H](O)CC[C@]12C)OO3 [EP, ergosterol peroxide]
cytotoxicity in MCF10A non-cancerous mammary epithelial cells (MCF10A): did not induce cytotoxicity
EC50 (SUM-149): 6 µM
EC50 (HMEC): > 20 µM
number and size of colonies formed (SUM-149 cells [1]): concentration-dependent decrease
EC50 (SUM-190 IBC cells): 43 µM
reaction of the endoperoxide with NAC [2]: no observable olefin migration or opening of the endoperoxide was detected
tumor growth rate (GFP fluorescence integrated density relative to week 5) (MDA-MB-231 GFP tumors): significantly decreases
cancer cell migration (SUM-149 cells [3]): decreases cancer cell migration
ROS formation, fold (SUM-149 cells [4]; EP 20 μM, vs vehicle): 4 fold
reduction in ROS formation in the presence of NAC (SUM-149 cells [4]; NAC 500 μM): about 20%
AKT2 levels ([5]; SUM-149): decreases
AKT3 levels ([5]; SUM-149): not affecting
expression of BCL-XL ([5]; SUM-149): significantly reduces
expression of Cyclin D1 ([5]; SUM-149): significantly reduces
expression of c-Myc ([5]; SUM-149): significantly reduces
expression of p-AKT1 (Ser 473) ([5]; SUM-149): significantly decreases
p-AKT2 ([5]; SUM-149): without affecting
total AKT1 levels ([5]; SUM-149): decreases
PARP cleavage ([5]; SUM-149, 24 h, EP 30 μM): induces PARP cleavage
total PARP levels ([5]; SUM-149, 24 h, EP 30 μM): significantly reduces
